Article PMC12794336, “Unconventional chalcogen-containing azolylidene metal complexes as potential anticancer therapeutics” (Chemical Science, 2025)
Like-named read-outs stand apart in the source and are kept apart here.

How the values were obtained:
[1] = test system: non-cancerous human embryonic kidney HEK293T cells; assay: Cytotoxicity, PrestoBlue assay, HEK293T; format: cell-based; conditions: 72 h, read-out: IC50 (µM) after 72 h, HEK293T
Procedure: (§1) counterpart, A2780cis, were procured from the European Collection of Cell
(§2) (ThermoFisher, USA) base medium supplemented with 10% Foetal Bovine
(§3) Serum (FBS; Sigma, Germany) and 1% of Penicillin-Streptomycin
(§4) (ThermoFisher, USA). Additionally, A2780cis cell line was cultured in the
(§5) drug. The human embryonic kidney cell line, HEK293T, and HeLa cell line were
(§6) obtained from American Type Culture Collection (ATCC, USA) and were cultured
(§7) in DMEM GlutaMAX (ThermoFisher, USA) base medium, supplemented with
(§8) 10% FBS and 1% of Penicillin-Streptomycin. All cell lines were maintained in a
(§9) humidified incubator at37 °C and 5% CO2.
(§10) 4.2. Cytotoxicity studies
(§11) cells/mL (A2780cis and HEK293T) was dispensed into flat bottom 96-well plates
(§12) and allowed to attach overnight. On the next day, 10 mM stock solutions of the
(§13) tested compounds were prepared in DMSO, then diluted with media to the final
(§14) concentration range of 0 - 100 µM and applied to the cells; 0.1% DMSO final
(§15) solution and 10 µM final concentration gambogic acid were used as negative and
(§16) positive controls, respectively. After 72 h incubation in a humidified incubator
(§17) under 5% CO2 at 37 °C, PrestoBlue™ cell viability reagent (Cat. No. A13262,
(§18) Invitrogen, USA) was added to cultures at a 1:10 ratio according to the
(§19) manufacturer instructions, and samples were incubated for 1.5 h. Fluorescence
(§20) at 560/590 nm was detected with Tecan Infinite 500 microplate reader (Tecan,
(§21) Switzerland). Three wells were assessed for each concentration of the tested
(§22) compounds and three independent experiments were performed. Non-linear
(§23) regression and IC50 value calculation were performed in GraphPad Prism 9 using
(§24) the build-in function “Dose response- Inhibition”.

[2] = test system: A2780 ovarian cancer cell line; assay: Cytotoxicity, PrestoBlue assay, A2780; format: cell-based, human; conditions: read-out: IC50 (µM) after 72 h, A2780
Procedure: as §1, §2, §3, §4, §5, §6, §7, §8, §9, §10, §11, §12, §13, §14, §15, §16, §17, §18, §19, §20, §21, §22, §23, §24

[3] = test system: A2780cis cells with acquired resistance to cisplatin; assay: Cytotoxicity, PrestoBlue assay, A2780cis; format: cell-based, human; conditions: for IC50: 72 h, read-out: IC50 (µM) after 72 h, A2780cis; for Resistance index (RI): RI = IC50 A2780cis/IC50 A2780
Procedure: as §1, §2, §3, §4, §5, §6, §7, §8, §9, §10, §11, §12, §13, §14, §15, §16, §17, §18, §19, §20, §21, §22, §23, §24

[4] = n-octanol/water partition coefficient; format: physicochemical
Description: Resistance index (RI) ^a, and n-octanol/water partition coefficients (logPOW) | column: logPOW

[5] = test system: DNA synthesis in HeLa cells; assay: EdU incorporation assay, fluorescence cell microscopy; format: cell-based; conditions: for Degree of inhibition of DNA synthesis: 3 µM, 24 h, gemcitabine = 100%, DMSO = 0%
Description: The inhibitory effect of Pt1^Y and Pt2^Y (Y = NR, O, S) on DNA synthesis during cell proliferation was quantified in cellulo using an EdU incorporation assay and fluorescence cell microscopy (Fig. 6 and SI Fig. 12).[70] Gemcitabine, a clinically-approved DNA synthesis inhibitor,[71] was used as a positive control (100% inhibition), and the cells treated with an equivalent amount of DMSO served as a negative control (“untreated”, 0% inhibition). Cisplatin and transplatin were included as references. DNA synthesis was blocked to various degrees in the cells treated with the different platinum complexes. […]
4.4. EdU incorporation assay
EdU incorporation assay was performed using a Click-iT EdU Imaging kit
(C10086, Thermo Fisher, Switzerland) according to the manufacturer’s protocol.
HeLa cells were seeded into a black 96-well PhenoPlate with optically clear flat-bottom (Revity 6055302) at a concentration of 4000 cells per well. After 24 h, the cells were treated with the tested compounds Pt1Y and Pt2Y (Y = NR, O, S), […]
of the compounds in HeLA cells). Gemcitabine (1 and 3 µM) and an equal volume of DMSO were used as positive and negative control, respectively. Each condition was tested in triplicate. The assay was performed after an incubation of 24 h. The cells were additionally stained by Hoechst 33342 diluted in PBS with 3% BSA. The fluorescent signal was detected with the widefield INCell 2200 microscope (GE health care, USA) using a 10X/0.45 objective. The DAPI channel was used for Hoechst 33342 emitting blue (λex = 390/ 18 nm, λem = 432.5/ 48 nm), and the FITC channel for Edu-AlexaFluor-488 (λex = 475/ 28 nm, λem = 511.5/23 nm) emitting in green. For each well, 9 fields of view were captured. Image analysis was performed using CellProfiler (v4.2.5), CellProfiler Analyst (v3.0.4) and FIJI (v1.54k) software. Images were first pre -processed (correction for flat - field illumination using a Gaussian-based smoothing filter and rescaled for segmentation). All cells were segmented using the minimum cross -entropy thresholding method on an intermediate image composed of the addition of 2 channels imaged. For all cells, featur es of size, shape, and fluorescence intensities were extracted. Cells were then either classified directly as live or dead based on a combination of their size and EdU staining intensity or classified automatically as live or dead using a machine learning -based random forest classifier model in a multiparametric approach. The readout used is the average percentage of live or dead cells in each condition and the values are normalised to gemcitabine at 3 μM and DMSO (untreated) with the corresponding volume at […]

[6] = test system: ovarian cancer cell lines (A2780 and A2780cis); assay: Cytotoxicity stated jointly for both ovarian cancer cell lines
Procedure: as §1, §2, §3, §4, §5, §6, §7, §8, §9, §10, §11, §12, §13, §14, §15, §16, §17, §18, §19, §20, §21, §22, §23, §24

[7] = Homo sapiens, HEK-293T, PrestoBlue
[8] = Homo sapiens, A2780, 72 h, PrestoBlue
[9] = Homo sapiens, A2780cis, PrestoBlue

Compound | IC50 [1, 7] [µM] | IC50 [2, 8] [µM] | IC50 [3, 9] [µM] | IC50 ([1]; PrestoBlue) [µM] | IC50 ([2]; 72 h, PrestoBlue) [µM] | IC50 ([3]; PrestoBlue) [µM] | Resistance index (RI) [3] | other results
Cn1cc[n+](C)c1 [1NMe·HI] | > 100 | > 100 | > 100 | – | – | – | – | –
C[n+]1ccoc1 [1O·HI] | 59.1 ± 16.6 | 11.8 | 39.8 ± 2.6 | – | – | – | – | –
C[n+]1ccsc1 [1S·HI] | > 100 | > 100 | > 100 | – | – | – | – | –
c1ccc(Cn2cc[n+](Cc3ccccc3)c2)cc1 [2NBn·HBr] | 51.1 ± 12.4 | 37.4 | 44.1 | – | – | – | – | –
c1ccc(C[n+]2ccoc2)cc1 [2O·HBr] | > 100 | > 100 | > 100 | – | – | – | – | –
c1ccc(C[n+]2ccsc2)cc1 [2S·HBr] | > 100 | 58.6 | 73.5 | – | – | – | – | –
CCn1c[n+](CC)c2ccccc21 [3NEt·HI] | > 100 | > 100 | > 100 | – | – | – | – | –
CC[n+]1coc2ccccc21 [3O·HI] | > 100 | > 100 | > 100 | – | – | – | – | –
CC[n+]1csc2ccccc21 [3S·HI] | > 100 | > 100 | > 100 | – | – | – | – | –
c1ccc(Cn2c[n+](Cc3ccccc3)c3ccccc32)cc1 [4NBn·HBr] | 35.2 ± 26.3 | 15.2 ± 12.1 | 24.4 ± 11.7 | – | – | – | – | –
c1ccc(C[n+]2c[se]c3ccccc32)cc1 [4Se·HBr] | – | – | – | – | – | – | – | IC50 ([1]; Homo sapiens, HEK-293T): 20.5 ± 14.2 µM; IC50 ([2]; Homo sapiens, A2780, 72 h): 13.5 ± 5.9 µM; IC50 ([3]; Homo sapiens, A2780cis): 28.4 ± 8 µM
c1ccc(C[n+]2csc3ccccc32)cc1 [4S·HBr] | 36.8 ± 19.3 | 34.7 | 37.9 ± 1.7 | – | – | – | – | –
CCn1[c]([Au-][I])[n+](CC)c2ccccc21 [Au3^NEt] | – | – | – | 2.1 ± 0.6 | 0.6 ± 0.2 | 2.7 ± 0.1 | 4.9 | logPOW ([4]; n-octanol/water): 1.6 ± 1.1
CC[n+]1[c]([Au-][I])oc2ccccc21 [Au3^O] | – | – | – | 1 ± 0.1 | 0.2 ± 0.2 | 5 ± 2 | 31.5 | logPOW ([4]; n-octanol/water): 1.2 ± 0.4; logPOW ([4]; n-octanol/water, listed as Au3^S): 1.5 ± 0.1; logPOW ([4]; n-octanol/water, listed as Au3^Se): 1.4 ± 0.3; IC50 ([1]; PrestoBlue, listed as Au3^S): 1.9 ± 0.3 µM; IC50 ([1]; PrestoBlue, listed as Au3^Se): 0.1 ± 0.1 µM; IC50 ([2]; 72 h, PrestoBlue, listed as Au3^S): 0.2 ± 0.1 µM; IC50 ([2]; 72 h, PrestoBlue, listed as Au3^Se): 0.1 ± 0.1 µM; IC50 ([3]; PrestoBlue, listed as Au3^S): 6.4 ± 0.4 µM; IC50 ([3]; PrestoBlue, listed as Au3^Se): 0.2 ± 0.1 µM; Resistance index (RI) ([3]; listed as Au3^S): 29.2; Resistance index (RI) ([3]; listed as Au3^Se): 3.4
CC(=O)OC[C@H]1O[C@@H]([S-])[C@H](OC(C)=O)[C@@H](OC(C)=O)[C@@H]1OC(C)=O.CCP(CC)CC.[Au+] [Auranofin, auranofin, reference compound] | – | – | – | 0.4 ± 0.1 | 0.1 ± 0.1 | 1.9 ± 0.4 | 20.6 | –
N.N.[Cl][Pt][Cl] [Cisplatin, cisplatin, reference compound] | – | – | – | 1.5 ± 0.2 | 0.4 ± 0.1 | 8 ± 5 | – | Degree of inhibition of DNA synthesis [5]: 62%; IC50 ([3]; PrestoBlue, listed as cisplatin): 8.4 ± 4.6 µM
Cn1cc[n+](C)[c]1[Pt-2]([I])([I])[n+]1ccccc1 [Pt1^NMe] | – | – | – | 4 ± 1 | 2.9 ± 0.2 | 2.8 ± 0.7 | 1.0 | logPOW [4]: 1.3 ± 0.6; IC50 [6]: ~3 µM; Degree of inhibition of DNA synthesis [5]: 29%
C[n+]1cco[c]1[Pt-2]([I])([I])[n+]1ccccc1 [Pt1^O] | – | – | – | 18 ± 6 | 8 ± 2 | 16 ± 4 | 2.0 | IC50 ([1]; PrestoBlue, listed as Pt1^S): 47 ± 23 µM; IC50 ([2]; 72 h, PrestoBlue, listed as Pt1^S): 13 ± 8 µM; Degree of inhibition of DNA synthesis [5]: 38%; Degree of inhibition of DNA synthesis ([5]; listed as Pt1^S): 6%; IC50 ([3]; PrestoBlue, listed as Pt1^S): 30 ± 29 µM; Resistance index (RI) ([3]; listed as Pt1^S): 2.4
[I][Pt-2]([I])([c]1n(Cc2ccccc2)cc[n+]1Cc1ccccc1)[n+]1ccccc1 [Pt2^NBn] | – | – | – | 1.4 ± 0.1 | 0.6 ± 0.2 | 1.2 ± 0.1 | 1.9 | logPOW [4]: 2.1 ± 0.8; IC50 [6]: ~1 µM; Degree of inhibition of DNA synthesis [5]: 100%
[I][Pt-2]([I])([c]1occ[n+]1Cc1ccccc1)[n+]1ccccc1 [Pt2^O] | – | – | – | 6 ± 2 | 4 ± 1 | 5 ± 2 | 1.5 | logPOW ([4]; n-octanol/water): 1.6 ± 0.2; logPOW ([4]; n-octanol/water, listed as Pt2^S): 1.8 ± 1.0; IC50 ([1]; PrestoBlue, listed as Pt2^S): 9 ± 2 µM; IC50 ([6]; read-out: Cytotoxicity (IC50) in the ovarian cancer cell lines, A2780 and A2780cis together, approximate text values, 72 h): ~5 µM; IC50 ([6]; read-out: Cytotoxicity (IC50) in the ovarian cancer cell lines, A2780 and A2780cis together, approximate text values, 72 h, listed as Pt2^S): ~8 µM; IC50 ([2]; 72 h, PrestoBlue, listed as Pt2^S): 6 ± 1 µM; Degree of inhibition of DNA synthesis [5]: 37%; Degree of inhibition of DNA synthesis ([5]; listed as Pt2^S): 24%; IC50 ([3]; PrestoBlue, listed as Pt2^S): 12 ± 3 µM; Resistance index (RI) ([3]; listed as Pt2^S): 2.2
Nc1ccn([C@@H]2O[C@H](CO)[C@@H](O)C2(F)F)c(=O)n1 [gemcitabine, reference compound] | – | – | – | – | – | – | – | inhibition at 1 µM ([5]; Homo sapiens, gemcitabine 1 µM, set as 100%, read-out: Degree of inhibition of DNA synthesis (positive control)): 100%
N.N.[Cl][Pt+2][Cl] [transplatin, reference compound] | – | – | – | – | – | – | – | Degree of inhibition of DNA synthesis [5]: 23%
